Measured values published in patent publication US10377719B2, “Trypanosomes inhibitors” (Hoffmann-La Roche Inc., priority 2015, dated 2019).

What follows are compounds tested on Trypanosoma brucei rhodesiense STIB900 (assay: Activity against Trypanosoma brucei rhodesiense STIB900 (Alamar Blue assay)). Details: Trypanosoma brucei, 70 h, bloodstream forms of T. b. rhodesiense STIB 900, 70 h incubation.
Type: cell-based
Protocol: Activity Against Trypanosoma brucei Rhodesiense STIB900
This stock was isolated in 1982 from a human patient in Tanzania and after several mouse passages cloned and adapted to axenic culture conditions (Baltz, T., D. Baltz, C. Giroud, and J. Crockett. 1985, Cultivation in a semi-defined medium of animal infective forms of Trypanosoma brucei, T. equiperdum, T. evansi, T. rhodesiense and T. gambiense. EMBO Journal 4:1273-1277). Minimum Essential Medium (50 μl) supplemented with 25 mM HEPES, 1 g/l additional glucose, 1% MEM non-essential amino acids (100×), 0.2 mM 2-mercaptoethanol, 1 mM Na-pyruvate and 15% heat inactivated horse serum was added to each well of a 96-well microtiter plate. Serial drug dilutions of eleven 3-fold dilution steps covering a range from […] were prepared. Then 4×10^3 bloodstream forms of T. b. rhodesiense STIB 900 in 50 μl was added to each well and the plate incubated at 37° C. under a 5% CO2 atmosphere for 70 h. 10 μl Alamar Blue (resazurin, 12.5 mg in 100 ml double-distilled water) was then added to each well and incubation continued for a further 2-4 h (Räz, B., M. Iten, Y. Grether-Buhler, R. Kaminsky, and R. Brun. 1997, The Alamar Blue assay to determine drug sensitivity of African trypanosomes (T.b. rhodesiense and T.b. gambiense) in vitro. Acta Trop 68:139-47). Then the plates were read with a Spectramax Gemini XS microplate fluorometer (Molecular Devices Cooperation, Sunnyvale, Calif., USA) using an excitation wave length of 536 nm and an emission wave length of 588 nm. The IC50 values were calculated by linear regression (Huber, W. Koella, J. C. 1993, A comparison of the three methods of estimating EC50 in studies of drug resistance of malaria parasites. Acta Trop. 55, 257-261) from the sigmoidal dose inhibition curves using SoftmaxPro software (Molecular Devices Cooperation, Sunnyvale, Calif., USA). Melarsoprol is used as control.
In the case of `N#CC1(NC(=O)[C@H](Cc2ccc(OC(F)(F)F)c(Cl)c2)NC(=O)c2cnn(-c3cccnc3)n2)CC1` [Example 26, N-[(2S)-3-[3-chloro-4-(trifluoromethoxy)phenyl]-1-[(1-cyanocyclopropyl)amino]-1-oxopropan-2-yl]-2-pyridin-3-yltriazole-4-carboxamide], the IC50 is reported as 0.001 µM. `N#CC1(NC(=O)[C@H](Cc2ccccc2)NC(=O)c2cnn(-c3ccc(F)cc3)n2)CC1` [Example 27, N-[(2S)-1-[(1-cyanocyclopropyl)amino]-1-oxo-3-phenylpropan-2-yl]-2-(4-fluorophenyl)triazole-4-carboxamide] was tested, and the IC50 was 0.516 µM. Compound `N#CC1(NC(=O)[C@H](Cc2ccc(OCC3CC3)c(Cl)c2)NC(=O)c2cnn(-c3ccc(F)cc3)n2)CC1` [Example 28, N-[(2S)-3-[3-chloro-4-(cyclopropylmethoxy)phenyl]-1-[(1-cyanocyclopropyl)amino]-1-oxopropan-2-yl]-2-(4-fluorophenyl)triazole-4-carboxamide] has an IC50 of 0.19 µM. `N#CC1(NC(=O)[C@H](Cc2ccc(Cl)c(Cl)c2)NC(=O)c2cnn(-c3ccc(F)cc3)n2)CC1` [Example 29, N-[(2S)-1-[(1-cyanocyclopropyl)amino]-3-(3,4-dichlorophenyl)-1-oxopropan-2-yl]-2-(4-fluorophenyl)triazole-4-carboxamide] gave an IC50 of 0.007 µM. `N#CC1(NC(=O)[C@H](Cc2ccc(OC(F)(F)F)c(Cl)c2)NC(=O)c2cnn(-c3ccc(F)nc3)n2)CC1` [Example 30, N-[(2S)-3-[3-chloro-4-(trifluoromethoxy)phenyl]-1-[(1-cyanocyclopropyl)amino]-1-oxopropan-2-yl]-2-(6-fluoropyridin-3-yl)triazole-4-carboxamide] was tested, and the IC50 was 0.005 µM. Work on `N#CC1(NC(=O)[C@H](Cc2ccc(OCc3ccccc3)cc2)NC(=O)c2cnn(-c3ccc(F)cc3)n2)CC1` [Example 31, N-[(2S)-1-[(1-cyanocyclopropyl)amino]-1-oxo-3-(4-phenylmethoxyphenyl)propan-2-yl]-2-(4-fluorophenyl)triazole-4-carboxamide] yielded an IC50 of 0.019 µM. For `CC(C)C[C@H](NC(=O)c1cnn(-c2ccc(F)cc2)n1)C(=O)NC1(C#N)CC1` [Example 32, N-[(2S)-1-[(1-cyanocyclopropyl)amino]-4-methyl-1-oxopentan-2-yl]-2-(4-fluorophenyl)triazole-4-carboxamide], the IC50 was 2.23 µM. `CC(C)n1ncc(C(=O)N[C@@H](Cc2ccc(OC(F)(F)F)c(Cl)c2)C(=O)NC2(C#N)CC2)n1` [Example 33, N-[(2S)-3-[3-chloro-4-(trifluoromethoxy)phenyl]-1-[(1-cyanocyclopropyl)amino]-1-oxopropan-2-yl]-2-propan-2-yltriazole-4-carboxamide] showed an IC50 of 0.004 µM. In the case of `Cn1ncc(C(=O)N[C@@H](Cc2ccc(OC(F)(F)F)c(Cl)c2)C(=O)NC2(C#N)CC2)n1` [Example 34, N-[(2S)-3-[3-chloro-4-(trifluoromethoxy)phenyl]-1-[(1-cyanocyclopropyl)amino]-1-oxopropan-2-yl]-2-methyltriazole-4-carboxamide], the IC50 is reported as 0.04 µM. `N#CC1(NC(=O)[C@H](Cc2ccc(OC(F)(F)F)c(Cl)c2)NC(=O)c2cnn(-c3ccc(Br)cc3)n2)CC1` [Example 35, 2-(4-bromophenyl)-N-[(2S)-3-[3-chloro-4-(trifluoromethoxy)phenyl]-1-[(1-cyanocyclopropyl)amino]-1-oxopropan-2-yl]triazole-4-carboxamide] was tested, and the IC50 was 0.028 µM. With `COCCOc1ccc(C[C@H](NC(=O)c2cnn(-c3ccc(F)cc3)n2)C(=O)NC2(C#N)CC2)cc1Cl` [Example 36, N-[(2S)-3-[3-chloro-4-(2-methoxyethoxy)phenyl]-1-[(1-cyanocyclopropyl)amino]-1-oxopropan-2-yl]-2-(4-fluorophenyl)triazole-4-carboxamide] the IC50 was 0.065 µM. `CC(C)(C)n1ncc(C(=O)N[C@@H](Cc2ccc(OC(F)(F)F)c(Cl)c2)C(=O)NC2(C#N)CC2)n1` [Example 37, 2-tert-butyl-N-[(2S)-3-[3-chloro-4-(trifluoromethoxy)phenyl]-1-[(1-cyanocyclopropyl)amino]-1-oxopropan-2-yl]triazole-4-carboxamide] gave an IC50 of 0.004 µM.
